Measured values as given in ChEMBL document CHEMBL5465560, “Selectivity Literature for EUbOPEN Chemogenomic Library” (2024).

Assays:
Aurora kinase B = Aurora kinase B (Homo sapiens, UniProt Q96GD4); conditions: at 10 µM
[1] = target: Histone-lysine N-methyltransferase PRDM9 (Homo sapiens) (UniProt Q9NQV7); experiment: Selectivity interaction (Methyltransferase screen (Scintillation proximity assays)) EUB0000255b PRDM9
[2] = target: Serine/threonine-protein kinase 38 (Homo sapiens) (UniProt Q15208); experiment: Selectivity interaction (KinomeScan (DiscoverX)) EUB0000655a STK38; conditions: at 10 µM
[3] = target: Mitogen-activated protein kinase kinase kinase 9 (Homo sapiens) (UniProt P80192); experiment: Selectivity interaction (KinomeScan (DiscoverX)) EUB0000618a MAP3K9; conditions: at 10 µM
[4] = target: T1, Dual specificity mitogen-activated protein kinase kinase 6 (Homo sapiens) (UniProt P52564); experiment: Selectivity interaction (SelectScreen profiling (Invitrogen)) EUB0000607a MAP2K6; conditions: at 2 µM
T1 sequence (whole entry): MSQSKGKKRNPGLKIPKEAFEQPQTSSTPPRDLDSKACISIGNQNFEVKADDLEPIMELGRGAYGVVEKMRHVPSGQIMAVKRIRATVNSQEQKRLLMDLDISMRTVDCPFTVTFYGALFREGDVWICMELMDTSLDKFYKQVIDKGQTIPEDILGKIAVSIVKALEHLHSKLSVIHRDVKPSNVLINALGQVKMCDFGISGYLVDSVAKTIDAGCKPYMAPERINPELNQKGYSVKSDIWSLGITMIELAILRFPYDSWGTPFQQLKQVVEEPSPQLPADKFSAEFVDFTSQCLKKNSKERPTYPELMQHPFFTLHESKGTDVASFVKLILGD

[5] = target: Death-associated protein kinase 1 (Homo sapiens, UniProt P53355); experiment: Selectivity interaction (KinomeScan (DiscoverX)) EUB0001619a DAPK1; conditions: at 1 µM
[6] = target: T2, Serine/threonine-protein kinase ULK2 (Homo sapiens) (UniProt Q8IYT8); experiment: Selectivity interaction (KinomeScan (DiscoverX)) EUB0001619a ULK2; conditions: at 1 µM
T2 sequence (whole entry): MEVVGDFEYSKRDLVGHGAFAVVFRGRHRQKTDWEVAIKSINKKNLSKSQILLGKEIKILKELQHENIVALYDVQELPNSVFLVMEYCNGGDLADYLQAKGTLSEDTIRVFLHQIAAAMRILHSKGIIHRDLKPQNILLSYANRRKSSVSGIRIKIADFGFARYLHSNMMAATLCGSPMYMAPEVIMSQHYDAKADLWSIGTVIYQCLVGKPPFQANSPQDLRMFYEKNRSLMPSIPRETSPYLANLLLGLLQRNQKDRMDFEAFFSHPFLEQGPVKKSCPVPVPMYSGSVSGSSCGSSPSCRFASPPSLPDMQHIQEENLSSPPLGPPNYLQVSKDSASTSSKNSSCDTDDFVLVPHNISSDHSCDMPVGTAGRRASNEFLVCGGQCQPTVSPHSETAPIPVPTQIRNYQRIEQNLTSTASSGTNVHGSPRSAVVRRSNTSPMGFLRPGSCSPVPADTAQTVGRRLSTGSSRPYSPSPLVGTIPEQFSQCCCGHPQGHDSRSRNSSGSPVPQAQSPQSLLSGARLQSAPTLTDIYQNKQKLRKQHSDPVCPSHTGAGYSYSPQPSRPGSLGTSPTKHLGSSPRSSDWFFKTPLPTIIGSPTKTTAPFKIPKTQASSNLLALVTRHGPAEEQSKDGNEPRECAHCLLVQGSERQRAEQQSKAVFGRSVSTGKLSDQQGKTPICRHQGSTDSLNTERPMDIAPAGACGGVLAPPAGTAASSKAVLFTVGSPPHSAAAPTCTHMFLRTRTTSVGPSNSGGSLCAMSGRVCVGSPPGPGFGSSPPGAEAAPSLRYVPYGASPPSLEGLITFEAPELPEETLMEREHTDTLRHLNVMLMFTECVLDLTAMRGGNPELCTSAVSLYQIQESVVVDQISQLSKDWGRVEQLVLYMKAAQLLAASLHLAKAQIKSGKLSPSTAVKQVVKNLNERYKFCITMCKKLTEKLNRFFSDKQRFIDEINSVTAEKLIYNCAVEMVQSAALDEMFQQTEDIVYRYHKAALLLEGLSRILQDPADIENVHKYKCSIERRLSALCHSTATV

[7] = target: Ephrin type-A receptor 2 (Homo sapiens) (UniProt P29317); experiment: Selectivity interaction (KinomeScan (DiscoverX)) EUB0000045b EPHA2
[8] = target: Ribosomal protein S6 kinase alpha-6 (Homo sapiens, UniProt Q9UK32); experiment: Selectivity interaction (KinomeScan (DiscoverX)) EUB0000595a RPS6KA6; conditions: at 10 µM
[9] = target: T3, Phosphatidylinositol 5-phosphate 4-kinase type-2 gamma (Homo sapiens) (UniProt Q8TBX8); experiment: Selectivity interaction (ActivX KiNativ screen (kinase selectivity in THP-1 cell lysates)) EUB0000639a PIP4K2C; format: subcellular; conditions: lysate, at 5 µM
T3 sequence (whole entry): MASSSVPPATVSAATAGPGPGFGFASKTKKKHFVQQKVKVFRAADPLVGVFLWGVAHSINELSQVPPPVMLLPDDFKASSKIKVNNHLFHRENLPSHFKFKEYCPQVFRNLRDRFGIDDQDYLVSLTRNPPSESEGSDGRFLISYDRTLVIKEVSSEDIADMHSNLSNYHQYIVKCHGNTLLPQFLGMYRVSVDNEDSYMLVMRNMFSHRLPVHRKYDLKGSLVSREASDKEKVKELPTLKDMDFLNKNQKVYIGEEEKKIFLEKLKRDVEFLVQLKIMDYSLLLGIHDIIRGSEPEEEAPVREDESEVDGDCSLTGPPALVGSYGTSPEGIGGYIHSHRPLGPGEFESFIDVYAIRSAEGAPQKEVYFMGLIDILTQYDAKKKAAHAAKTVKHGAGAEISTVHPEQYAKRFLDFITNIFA

[10] = target: Tyrosine-protein kinase receptor UFO (Homo sapiens) (UniProt P30530); experiment: Selectivity interaction (Kinase panel (Invitrogen)) EUB0000639a AXL; conditions: at 200 nM
[11] = target: Glycogen synthase kinase-3 beta (Homo sapiens, UniProt P49841); experiment: Selectivity interaction (ProQinase) EUB0000171b GSK3B
[12] = target: Tyrosine-protein kinase Fes/Fps (Homo sapiens) (UniProt P07332); experiment: Selectivity interaction (KinomeScan (DiscoverX)) EUB0001049a FES; conditions: at 1 µM
[13] = target: Serine/threonine-protein kinase PLK2 (Homo sapiens, UniProt Q9NYY3); experiment: Selectivity interaction (KinomeScan (DiscoverX)) EUB0001049a PLK2; conditions: at 1 µM
[14] = target: MAP kinase-activated protein kinase 2 (Homo sapiens, UniProt P49137); experiment: Selectivity interaction (KinomeScan (DiscoverX)) EUB0000092b MAPKAPK2; conditions: at 10 µM
[15] = target: Cyclin-dependent kinase 5 (Homo sapiens, UniProt Q00535); experiment: Selectivity interaction (Kinase screening (Nanosyn)) EUB0000604a CDK5
Chain of Cyclin-dependent kinase 5 (Q00535 whole entry, looked up): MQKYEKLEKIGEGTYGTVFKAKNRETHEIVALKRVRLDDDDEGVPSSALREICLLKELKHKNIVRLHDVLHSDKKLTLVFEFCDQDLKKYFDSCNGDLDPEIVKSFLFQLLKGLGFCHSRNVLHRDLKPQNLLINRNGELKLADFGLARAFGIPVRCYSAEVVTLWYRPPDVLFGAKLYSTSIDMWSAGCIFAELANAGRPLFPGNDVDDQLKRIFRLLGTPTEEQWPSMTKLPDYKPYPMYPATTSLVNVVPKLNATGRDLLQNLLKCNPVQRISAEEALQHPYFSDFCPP

Chain of Ephrin type-A receptor 2 (Homo sapiens) (P29317 whole entry): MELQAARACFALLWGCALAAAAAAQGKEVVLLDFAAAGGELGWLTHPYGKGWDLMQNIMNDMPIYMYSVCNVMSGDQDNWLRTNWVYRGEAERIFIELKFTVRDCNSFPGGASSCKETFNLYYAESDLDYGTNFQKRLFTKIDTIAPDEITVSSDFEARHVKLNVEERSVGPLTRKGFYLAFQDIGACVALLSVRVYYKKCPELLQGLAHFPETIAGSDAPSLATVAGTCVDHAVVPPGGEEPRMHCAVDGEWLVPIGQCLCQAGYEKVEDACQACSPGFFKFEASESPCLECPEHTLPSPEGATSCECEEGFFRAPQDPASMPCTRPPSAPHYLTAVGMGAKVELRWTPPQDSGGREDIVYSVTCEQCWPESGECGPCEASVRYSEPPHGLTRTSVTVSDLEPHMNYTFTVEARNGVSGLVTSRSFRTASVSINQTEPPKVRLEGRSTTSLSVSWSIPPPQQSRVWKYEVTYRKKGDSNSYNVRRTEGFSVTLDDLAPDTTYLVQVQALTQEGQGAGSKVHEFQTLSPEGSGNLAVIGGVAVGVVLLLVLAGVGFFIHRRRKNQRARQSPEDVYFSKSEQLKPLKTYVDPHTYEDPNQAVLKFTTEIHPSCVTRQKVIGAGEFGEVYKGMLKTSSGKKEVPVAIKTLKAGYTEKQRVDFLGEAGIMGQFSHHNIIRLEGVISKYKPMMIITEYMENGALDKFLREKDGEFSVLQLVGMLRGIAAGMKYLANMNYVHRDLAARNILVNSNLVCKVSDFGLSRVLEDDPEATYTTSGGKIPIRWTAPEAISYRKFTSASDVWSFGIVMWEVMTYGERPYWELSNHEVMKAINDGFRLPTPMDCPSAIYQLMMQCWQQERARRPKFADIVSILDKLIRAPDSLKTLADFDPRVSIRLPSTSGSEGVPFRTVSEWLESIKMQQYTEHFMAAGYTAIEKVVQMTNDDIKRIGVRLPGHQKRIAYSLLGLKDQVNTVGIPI
Chain of Histone-lysine N-methyltransferase PRDM9 (Homo sapiens) (Q9NQV7 whole entry): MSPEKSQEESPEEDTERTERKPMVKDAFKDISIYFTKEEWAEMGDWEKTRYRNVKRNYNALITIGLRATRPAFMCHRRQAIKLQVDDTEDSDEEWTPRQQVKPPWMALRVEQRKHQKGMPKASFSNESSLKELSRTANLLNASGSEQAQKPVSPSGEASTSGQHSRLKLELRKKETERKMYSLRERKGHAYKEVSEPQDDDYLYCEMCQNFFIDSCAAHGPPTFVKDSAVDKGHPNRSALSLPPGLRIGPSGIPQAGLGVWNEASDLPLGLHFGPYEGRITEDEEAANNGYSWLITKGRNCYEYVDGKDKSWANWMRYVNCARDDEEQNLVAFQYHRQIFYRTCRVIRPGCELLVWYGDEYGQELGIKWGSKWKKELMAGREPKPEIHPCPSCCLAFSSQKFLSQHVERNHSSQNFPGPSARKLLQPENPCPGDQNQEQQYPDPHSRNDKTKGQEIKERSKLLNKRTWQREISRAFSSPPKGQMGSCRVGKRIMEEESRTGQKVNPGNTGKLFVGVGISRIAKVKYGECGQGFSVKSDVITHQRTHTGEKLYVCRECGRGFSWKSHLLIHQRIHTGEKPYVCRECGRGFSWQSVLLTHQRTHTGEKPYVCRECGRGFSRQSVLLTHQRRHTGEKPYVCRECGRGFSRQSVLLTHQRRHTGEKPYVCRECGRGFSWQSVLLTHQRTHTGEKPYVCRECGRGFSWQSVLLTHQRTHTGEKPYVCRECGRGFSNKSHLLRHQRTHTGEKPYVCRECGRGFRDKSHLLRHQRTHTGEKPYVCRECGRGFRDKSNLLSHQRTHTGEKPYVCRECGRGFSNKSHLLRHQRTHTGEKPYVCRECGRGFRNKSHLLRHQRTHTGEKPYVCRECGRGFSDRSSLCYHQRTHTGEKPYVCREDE
Chain of Glycogen synthase kinase-3 beta (P49841 whole entry, looked up): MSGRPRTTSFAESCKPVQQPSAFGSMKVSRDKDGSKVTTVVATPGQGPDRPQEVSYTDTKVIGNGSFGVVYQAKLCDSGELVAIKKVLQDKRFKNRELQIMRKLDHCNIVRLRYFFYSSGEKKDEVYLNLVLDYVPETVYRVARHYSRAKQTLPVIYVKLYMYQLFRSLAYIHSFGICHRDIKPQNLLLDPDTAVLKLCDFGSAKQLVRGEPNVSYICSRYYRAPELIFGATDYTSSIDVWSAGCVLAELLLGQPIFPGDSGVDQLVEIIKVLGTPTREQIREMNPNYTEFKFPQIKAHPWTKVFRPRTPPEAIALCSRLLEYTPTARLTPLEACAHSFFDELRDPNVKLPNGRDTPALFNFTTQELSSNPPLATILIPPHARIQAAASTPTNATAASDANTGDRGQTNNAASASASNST
Chain of Mitogen-activated protein kinase kinase kinase 9 (Homo sapiens) (P80192 whole entry, looked up): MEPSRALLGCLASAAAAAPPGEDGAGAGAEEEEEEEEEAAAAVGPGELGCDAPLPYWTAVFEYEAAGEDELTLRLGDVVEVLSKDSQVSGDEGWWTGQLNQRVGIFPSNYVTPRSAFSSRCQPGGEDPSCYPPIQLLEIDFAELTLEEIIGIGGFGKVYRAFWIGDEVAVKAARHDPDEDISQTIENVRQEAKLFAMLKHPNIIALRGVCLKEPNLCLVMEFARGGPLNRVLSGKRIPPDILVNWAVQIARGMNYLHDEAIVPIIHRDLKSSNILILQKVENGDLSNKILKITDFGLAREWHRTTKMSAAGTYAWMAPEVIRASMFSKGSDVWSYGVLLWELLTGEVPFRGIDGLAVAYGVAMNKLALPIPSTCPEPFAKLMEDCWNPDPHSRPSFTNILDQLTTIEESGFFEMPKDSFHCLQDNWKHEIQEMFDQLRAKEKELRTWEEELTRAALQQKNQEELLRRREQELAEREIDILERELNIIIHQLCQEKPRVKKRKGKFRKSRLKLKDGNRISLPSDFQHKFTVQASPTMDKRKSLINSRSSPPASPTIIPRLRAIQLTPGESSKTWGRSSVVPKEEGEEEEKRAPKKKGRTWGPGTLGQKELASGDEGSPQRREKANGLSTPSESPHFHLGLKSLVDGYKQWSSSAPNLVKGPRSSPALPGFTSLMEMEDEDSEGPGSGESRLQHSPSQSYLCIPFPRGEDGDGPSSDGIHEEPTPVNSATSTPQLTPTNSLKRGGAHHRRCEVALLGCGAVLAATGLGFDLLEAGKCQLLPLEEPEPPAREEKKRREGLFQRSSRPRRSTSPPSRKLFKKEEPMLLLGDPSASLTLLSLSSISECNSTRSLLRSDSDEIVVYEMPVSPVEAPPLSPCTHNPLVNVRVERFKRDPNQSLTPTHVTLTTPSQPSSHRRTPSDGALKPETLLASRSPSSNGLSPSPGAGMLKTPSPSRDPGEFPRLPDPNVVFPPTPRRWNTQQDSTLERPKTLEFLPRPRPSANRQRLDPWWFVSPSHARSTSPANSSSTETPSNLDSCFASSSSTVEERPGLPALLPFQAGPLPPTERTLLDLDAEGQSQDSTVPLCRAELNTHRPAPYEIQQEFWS
Chain of Tyrosine-protein kinase Fes/Fps (Homo sapiens) (P07332 whole entry): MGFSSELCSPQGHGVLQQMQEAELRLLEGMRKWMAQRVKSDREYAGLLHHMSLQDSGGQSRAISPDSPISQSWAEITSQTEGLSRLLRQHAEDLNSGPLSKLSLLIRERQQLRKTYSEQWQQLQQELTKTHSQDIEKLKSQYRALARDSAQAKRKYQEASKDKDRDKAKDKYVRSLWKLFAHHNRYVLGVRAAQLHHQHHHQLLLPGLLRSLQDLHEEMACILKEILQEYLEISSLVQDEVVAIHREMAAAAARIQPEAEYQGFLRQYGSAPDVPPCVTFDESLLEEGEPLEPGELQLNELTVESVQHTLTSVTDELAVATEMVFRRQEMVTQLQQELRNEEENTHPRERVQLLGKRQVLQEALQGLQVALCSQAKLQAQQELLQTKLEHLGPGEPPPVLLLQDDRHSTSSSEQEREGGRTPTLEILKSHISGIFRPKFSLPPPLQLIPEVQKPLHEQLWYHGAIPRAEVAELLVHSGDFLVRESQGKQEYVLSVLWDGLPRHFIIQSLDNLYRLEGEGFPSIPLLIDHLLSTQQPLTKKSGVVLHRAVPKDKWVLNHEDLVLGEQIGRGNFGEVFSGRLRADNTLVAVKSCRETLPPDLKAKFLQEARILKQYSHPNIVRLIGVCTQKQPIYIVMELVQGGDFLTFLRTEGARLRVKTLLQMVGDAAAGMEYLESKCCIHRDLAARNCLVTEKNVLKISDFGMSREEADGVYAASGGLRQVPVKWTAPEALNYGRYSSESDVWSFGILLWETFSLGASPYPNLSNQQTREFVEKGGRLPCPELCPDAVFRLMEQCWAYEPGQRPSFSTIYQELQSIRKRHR
Chain of Aurora kinase B (Q96GD4 whole entry): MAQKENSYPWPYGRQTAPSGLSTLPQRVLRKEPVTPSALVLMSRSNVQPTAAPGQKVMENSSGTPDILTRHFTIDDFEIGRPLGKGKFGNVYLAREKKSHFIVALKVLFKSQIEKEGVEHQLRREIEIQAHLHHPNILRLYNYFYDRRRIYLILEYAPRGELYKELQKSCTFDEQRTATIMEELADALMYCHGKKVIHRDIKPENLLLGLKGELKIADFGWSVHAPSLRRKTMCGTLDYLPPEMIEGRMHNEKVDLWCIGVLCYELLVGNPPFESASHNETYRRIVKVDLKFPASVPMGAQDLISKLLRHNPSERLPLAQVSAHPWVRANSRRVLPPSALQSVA

`CCN(CC)CCCCNc1ncc2cc(-c3cc(OC)cc(OC)c3)c(NC(=O)NC(C)(C)C)nc2n1` gave a % of control (Aurora kinase B) of 100%.
`COCCN1CCC(c2cc(CN(C)C(=O)c3cccc(Oc4ccccc4)c3)ccn2)CC1` showed a % activity ([1]; at 1 µM) greater than 95% and a % activity ([1]; at 10 µM) greater than 90%.
With `CN(C)CCOc1ccc(-c2nc(-c3ccncc3)c(-c3ccc4c(c3)CC/C4=N\O)[nH]2)cc1` the % of control [2] was 90%.
For `O[C@H]1CC[C@H](Nc2ncc3nc(Nc4c(F)cc(F)cc4F)n([C@H]4CCOC4)c3n2)CC1`, the % of control [3] was 100%.
Work on `CNC(=O)Nc1ccc(-c2nc(N3CC4CCC(C3)O4)c3cnn(C4CCC5(CC4)OCCO5)c3n2)cc1` yielded a % of inhibition [4] of 8%.
In the case of `N#Cc1cccc(-c2c[nH]c3ncnc(N4CCOCC4)c23)c1`, the % of control [5] is reported as 89% and the % of control [6] is reported as 69%.
In the case of `C=CC(=O)Nc1cc(-n2c(=O)ccc3cnc4ccc(-c5ccc(NS(C)(=O)=O)cc5)cc4c32)ccc1C`, the % of control ([7]; at 1 µM) is reported as 100% and the % of control ([7]; at 10 µM) is reported as 100%.
In the case of `COCC(=O)NC/C=C/c1ccc2ncnc(Nc3ccc(Oc4ccc(C)nc4)c(C)c3)c2c1` [CP-724714], the % of control [8] is reported as 96%.
Molecule `CC[C@@H]1[C@H](F)C(=O)N[C@@H]1COc1nccc2cc(C(N)=O)c(OC)cc12` [ZIMLOVISERTIB] has a % of inhibition [9] of 87.4% and a % of inhibition [10] of 12.2%.
With `C=CC(=O)Nc1cccc(C(=O)Nc2ccc(Nc3cc(-c4[nH]c(SC)nc4C)ccn3)cc2)c1` the % of control ([11]; at 1 µM) was 91% and the % of control ([11]; at 5 µM) was 85%.
`COc1cc(Nc2nc(C)cc(-c3cnn4nc(OC)ccc34)n2)cc(C(F)(F)F)c1` was tested, and the % of control [12] was 95% and the % of control [13] was 77%.
In the case of `CCC(=O)N1CCN(c2ccc(-n3c(=O)ccc4cnc5ccc(-c6cnc7ccccc7c6)cc5c43)cc2C(F)(F)F)CC1`, the % of control [14] is reported as 100%.
Work on `Cc1cnc(Nc2ccc(F)cc2Cl)nc1-c1c[nH]c(C(=O)N[C@H](CO)c2cccc(Cl)c2)c1` yielded a % of inhibition [15] of 24%.
